Reference: patent US20210177889A1, “GASEOUS PHARMACEUTICAL COMPOSITION FOR HYPERTENSION THERAPY” (KEIO UNIVERSITY, priority 2019, published 2021)

Key:
[1] = tested on: spontaneous hypertension rats (SHR); test: Hemodynamics effect of inhaled H2 in spontaneous hypertension rats (telemetry); assay type: in vivo, rat (SHR/Izumo)
Procedure: Male Lewis rats (8 weeks-old, body weight 250-300 g), and 10 weeks-old male spontaneous hypertension rats (SHR/Izumo rats; hereinafter simply referred to as SHR) were used (CLEA Japan). Rats were given water and standard food ad libitum, and were not fasted before experiment. Rats were kept under a condition of standardized temperature (22±1° C.) and humidity (55±5) in a 12 hours:12 hours of light-dark cycle. Rats were acclimated to the experimental condition from at least one week before the experiment. This research was approved by institutional animal control committees (Keio University [Tokyo], No. 13002-4; and Nippon Veterinary and Life Science University [Tokyo], No. 30K-61). Rats were randomly assigned to the H2 group or the control group.
In order to monitor continuous blood pressure fluctuation, telemetry transmitters were implanted into rats. Specifically, rats were anesthetized with isoflurane, and the left groin was disinfected with 1% chlorhexidine. An incision of about 1.5 cm was made in the left groin, the left femoral artery was exposed, and a telemetry transmitter (HD-S10, Physiotel HD Telemetry, Data Science International) catheter was inserted into the left femoral artery. The tip of the transmitter catheter was placed in the abdominal aorta caudally from the branch of the renal artery. The transmitter body was inserted into a subcutaneous pocket made in the left lower back, and the skin was sutured. All surgical intervention was performed under sterile conditions.
H2 gas (1.3% H2+21% O2+77.7 N2) and control gas (21% O2+79% N2) were filled into gas cylinders in advance at a factory. The H2 group and the control group were allowed to inhale the H2 gas and the control gas that were mixed in advance. All animals were allowed to inhale the assigned gas at 10 L/minute for 1 hour in an established anesthesia box, and inhaled for an additional three minutes to purge the box (i.e. a total of 63 minutes). In the nephrectomy model and SHR, gas inhalation was repeated every day for 4 weeks and 2 weeks, respectively.
Spontaneous hypertension rats (SHR) are a well-established hereditary hypertensive model that is broadly used in hypertensive research (Okamoto, K. & Aoki, K. Development of a strain of spontaneously hypertensive rats. Jpn. Circ. J. 27, 282-293 (1963); and Rubattu, S., Struk, B., Kreutz, R., Volpe, M. & Lindpaintner, K. Animal models of genetic hypertension: what can we learn for human hypertension? Clin. Exp. Pharmacol. Physiol. 22, S386-393 (1995)). In order to investigate the consistency of the hypotensive effect of H2 in other hypertensive models, the therapeutic effect of H2 gas against hypertension of SHR was investigated (FIG. 1d). […]

autonomic nerve function = test: Autonomic nerve function by frequency analysis in spontaneous hypertension rats; assay type: in vivo, rat (SHR/Izumo); details: SHR
Procedure: Heart rate variability was analyzed using telemetry system software (Ponemah Ver. 6.3, Data Science International). Frequency domain analysis (sampling rate of 500 Hz; very low frequency (VLF) (0.05-0.25 Hz); low frequency (LF) (0.25-1.0 Hz); and high frequency (HF) (1.0-3.0 Hz)) was carried out using the arterial pressure waveform data of the first one minute of every five minutes (about 300 to 400 beats). In heart rate variability analysis, data recorded in the first 15 minutes was excluded, and effective data in the first one minute out of a block of every 5 minutes was used. LF and HF each reflected the sympathetic nerve component and the parasympathetic nerve component (Akselrod, S. et al. Power spectrum analysis of heart rate fluctuation: a quantitative probe of beat-to-beat cardiovascular control. Science 213, 220-222 (1981); Pagani, M. et al. Power spectral analysis of heart rate and arterial pressure variabilities as a marker of sympatho-vagal interaction in man and conscious dog. Circ. Res. 59, 178-193 (1986); and Montano, N. et al. Power spectrum analysis of heart rate variability to assess the changes in sympathovagal balance during graded orthostatic tilt. Circulation 90, 1826-1831 (1994)). LF/HF ratio and HF/(LF+HF) were each handled as indicators of sympathetic nerve activity and parasympathetic nerve activity (Heart rate variability: standards of measurement, physiological interpretation and clinical use. Task Force of the European Society of Cardiology and the North American Society of Pacing and Electrophysiology. Circulation 93, 1043-1065 (1996); and Pagani, M. et al. Relationship between spectral components of cardiovascular variabilities and direct measures of muscle sympathetic nerve activity in humans. Circulation 95, 1441-1448 (1997)).
H2 gas (1.3% H2+21% O2+77.7 N2) and control gas (21% O2+79% N2) were filled into gas cylinders in advance at a factory. The H2 group and the control group were allowed to inhale the H2 gas and the control gas that were mixed in advance. […]

[2] = Week 2 compared to Week 1 of daily inhalation, N=3
[3] = Week 3 (week after 2 weeks of inhalation)

[2H][2H] [H2 gas, Molecular hydrogen (H2)]
increase in blood pressure [1, 2]: suppressed | increase in heart rate [1, 2]: suppressed | blood pressure after inhalation was stopped [1, 3]: stayed low | heart rate after inhalation was stopped [1, 3]: stayed low | paraSNA (HF/LF+HF) ratio (autonomic nerve function; Week two compared to Week 1): increases | influence on the autonomic nerve function after the end of inhalation (autonomic nerve function; after the first week after the end of inhalation): disappeared | SNA (LF/HF) (autonomic nerve function; during inhalation of H2): decreases
